In brackets after ≈: the same amount, converted by molar mass. Entries after “also recorded” stand apart in the source; their conditions may differ. Read-outs that look alike come from different tables or passages of the source.
How the values were obtained:
ClpC1 [1] = conditions: ref Gavrish et al., 2014 (lassomycin); Gao et al., 2014 (ecumicin); cited from earlier work
ClpC1 [2] = conditions: binding to the ATPase ClpC1; ref Schmitt et al., 2011; cited from earlier work
MTB ClpP1P2 = MTB ClpP1P2 (Mycobacterium tuberculosis, UniProt P9WPC3+P9WPC5); assay: Z-GGL-amc peptidase activity of Z-LL pre-activated ClpP1P2; type: biochemical, M. tuberculosis; conditions: 5 mM Z-LL, without ADEP
BS ClpP [3] = biological target: T1, BS ClpP (Bacillus subtilis, UniProt P80244); assay: suc-LY-amc hydrolysis competition assay with BS ClpP; type: biochemical, B. subtilis; conditions: 3 μM BS ClpP, 30 μM suc-LY-amc, 0–60 μM ADEP2, 0, 500 or 2500 μM Z-LL, pH 8
BS ClpP [4] = biological target: T1, BS ClpP; assay: Z-LL stability in the presence of BS ClpP, HPLC; set-up: species or system B. subtilis; conditions: 1 mM Z-LL, 3 μM BS ClpP, 3 h, 37 °C, activity buffer, Fig. S3
[5] = test system: M. bovis BCG clpP1-tetoff; type: cell-based, Mycobacterium bovis BCG
M. bovis wildtype (wt) = type: cell-based, Mycobacterium bovis BCG
ClpP2 = type: cell-based, M. bovis BCG
M. smegmatis mc^2155 = assay: MIC determination by broth microdilution, M. smegmatis; type: cell-based, Mycobacterium smegmatis; conditions: Mycolicibacterium smegmatis, MC^2155, 48 h
M. bovis BCG Pasteur = assay: microbe, parasite or virus in culture; type: cell-based, Mycobacterium bovis BCG
[6] = test system: M. bovis BCG clpP1-tetoff; assay: microbe, parasite or virus in culture; type: cell-based, Mycobacterium bovis BCG
M. tuberculosis H37Rv = assay: MIC determination by broth microdilution, M. tuberculosis; type: cell-based; conditions: Mycobacterium tuberculosis
B. subtilis 168 = assay: MIC determination by broth microdilution, B. subtilis 168 wt; type: cell-based; conditions: Bacillus subtilis, 168, B. subtilis 168 wt, LB medium
B. subtilis 168-pX2-clpP = assay: MIC determination, conditional strain B. subtilis 168-pX2-clpP; type: cell-based; conditions: Bacillus subtilis, 168PX2CLPP, LB medium
B. subtilis 168ΔclpP = assay: microbe, parasite or virus in culture; type: cell-based; conditions: Bacillus subtilis, LB medium
S. aureus = conditions: ref Conlon et al., 2013; cited from earlier work
[7] = M. bovis BCG wt, 25 ng ml^−1 ATc
[8] = M. bovis BCG wt, no ATc (Table 2)
[9] = Mycobacterium tuberculosis variant bovis BCG, BCG

T1 sequence (P80244 whole entry): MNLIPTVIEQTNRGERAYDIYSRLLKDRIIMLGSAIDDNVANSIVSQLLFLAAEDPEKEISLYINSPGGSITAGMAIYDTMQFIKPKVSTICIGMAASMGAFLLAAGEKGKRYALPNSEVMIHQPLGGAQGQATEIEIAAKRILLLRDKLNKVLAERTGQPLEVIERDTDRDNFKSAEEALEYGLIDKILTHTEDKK

Molecule: ecumicin
- ATP-hydrolysis by ClpC1, uncoupling from protein degradation by ClpP1P2 (ClpC1 [1]): stimulate ATP-hydrolysis by ClpC1, while uncoupling it from protein degradation by ClpP1P2

Molecule: Cyclomarin
- hydrolysis of a model protein in M. smegmatis (ClpC1 [2]): increased hydrolysis of a model protein

Molecule: benzyloxycarbonyl-leucyl-leucine [Z-LL]
- peptidase activity of ClpP1P2 activated by Z-LL alone (MTB ClpP1P2): able to degrade the fluorogenic peptide substrate Z-GGL-amc
- mode of inhibition of Z-LL versus ADEP2 (BS ClpP [3]): non-competitive with ADEP
- amount of Z-LL after incubation with BS ClpP (BS ClpP [4]): not reduced after 3 hours incubation

Molecule: Cc1c2c(c(O)c3c(O)cccc13)C(=O)[C@]1(O)C(=O)C(C(N)=O)=C(O)[C@@H](N(C)C)[C@@H]1C2 [ATc, anhydrotetracycline]
- growth of clpP1-tetoff strain [5]: slowed down the growth rate; also recorded: the cells were dying
- growth of M. bovis wildtype (M. bovis wildtype (wt); 2 ng ml^−1 ATc): not affected
- growth of M. bovis wildtype (M. bovis wildtype (wt); 25 ng ml^−1 ATc, MIC growth controls): did not impede growth of the wildtype strain
- ClpP2 / ClpP1P2 protein level (ClpP2): considerably reduced level

Molecule: NNC(=O)c1ccncc1 [isoniazid]
- MIC (M. smegmatis mc^2155): 4 µg/mL (≈ 29.2 µM)
- MIC (M. bovis BCG Pasteur; M. bovis BCG Pasteur, 7H9 medium): 0.06 µg/mL (≈ 0.438 µM)
- MIC (M. bovis BCG Pasteur; [7]): 0.06 µg/mL (≈ 0.438 µM)
- MIC (M. bovis BCG Pasteur; [8]): 0.06 µg/mL (≈ 0.438 µM)
- MIC (M. bovis BCG Pasteur; [9]): 0.06 µg/mL (≈ 0.438 µM)
- effect of ATc (clpP1P2 down-regulation) on sensitivity to the antibiotic [6]: did not occur
- MIC [6, 9]: 0.03 µg/mL (≈ 0.219 µM)

Molecule: CN[C@@H]1[C@@H](O[C@H]2O[C@H](CO)[C@@H](N)[C@H](O)[C@H]2O)OC2C[C@@H](N)[C@@H](O[C@H]3[C@H](O)[C@@H](O)[C@H](N)C[C@@H]3N)OC2[C@@H]1O (some centres unmarked) [apramycin]
- MIC (M. bovis BCG Pasteur; [7]): 1 µg/mL (≈ 1.85 µM)
- MIC (M. bovis BCG Pasteur; [8]): 1 µg/mL (≈ 1.85 µM)
- MIC (M. bovis BCG Pasteur; [9]): 1 µg/mL (≈ 1.85 µM)
- MIC (M. tuberculosis H37Rv): 1 µg/mL (≈ 1.85 µM)
- MIC (B. subtilis 168; 10% xylose): 2 µg/mL (≈ 3.71 µM)
- MIC (B. subtilis 168; no xylose): 4 µg/mL (≈ 7.41 µM)
- effect of ATc (clpP1P2 down-regulation) on sensitivity to the antibiotic [6]: did not occur
- MIC (B. subtilis 168-pX2-clpP; 1% xylose): 1 µg/mL (≈ 1.85 µM)
- MIC (B. subtilis 168-pX2-clpP; 2% xylose): 2 µg/mL (≈ 3.71 µM)
- MIC (B. subtilis 168-pX2-clpP; 3% xylose): 2 µg/mL (≈ 3.71 µM)
- MIC (B. subtilis 168-pX2-clpP; 4% xylose): 4 µg/mL (≈ 7.41 µM)
- MIC (B. subtilis 168-pX2-clpP; 5% xylose): 2 µg/mL (≈ 3.71 µM)
- MIC (B. subtilis 168-pX2-clpP; 8% xylose): 4 µg/mL (≈ 7.41 µM)
- MIC (B. subtilis 168-pX2-clpP; 10% xylose): 4 µg/mL (≈ 7.41 µM)
- MIC (B. subtilis 168-pX2-clpP; no xylose): 2 µg/mL (≈ 3.71 µM)
- MIC (B. subtilis 168ΔclpP; 10% xylose): 1 µg/mL (≈ 1.85 µM)
- MIC (B. subtilis 168ΔclpP; no xylose): 2 µg/mL (≈ 3.71 µM)

Molecule: lassomycin
- ATP-hydrolysis by ClpC1, uncoupling from protein degradation by ClpP1P2 (ClpC1 [1]): stimulate ATP-hydrolysis by ClpC1, while uncoupling it from protein degradation by ClpP1P2

Molecule: CO[C@H]1/C=C/O[C@@]2(C)Oc3c(C)c(O)c4c(O)c(c(/C=N/N5CCN(C)CC5)c(O)c4c3C2=O)NC(=O)/C(C)=C\C=C\[C@H](C)[C@H](O)[C@@H](C)[C@@H](O)[C@@H](C)[C@H](OC(C)=O)[C@@H]1C [Rifampicin]
- synergy with ADEP against S. aureus (S. aureus): act synergistically with ADEP against S. aureus
